Results from patent publication US20040087792A1, “Tryptase-inhibitors” (priority 2001, published 2004).
Counter-ions that a name gives are not always drawn.

Target: human tryptase
Assay: Inhibition of human tryptase (equilibrium, chromogenic substrate tos-Gly-Pro-arg-pNA)
Assay type: biochemical
Conditions: in the presence of substrate; heparin 0.1-50 μg/ml; cleavage monitored at 405 nm; read-out: Klapp (apparent dissociation constant Kiapp)
Excerpt: The documented pathophysiological effects of mast cell tryptase are caused directly by the enzymatic activity of the protease. Accordingly, they are reduced or blocked by inhibitors which inhibit the enzymatic activity of the tryptase. A suitable measure for the affinity of a reversible inhibitor to the target protease is the equilibrium dissociation constant Ki of the enzyme-inhibitor complex. This Ki value can be determined via the effect of the inhibitor on the tryptase-induced cleavage of a chromogenic peptide-p-nitroanilide substrate or a fluorogenic peptide-aminomethylcoumarin substrate.
The dissociation constants for the tryptase-inhibitor complexes are determined under equilibrium conditions in accordance with the general proposals of Bieth (Bieth J G, Pathophysiological Interpretation of kinetic constants of protease inhibitors, Bull. Europ. Physiopath. Resp. 16:183-195, 1980) and the methods of Sommerhoff et al. (Sommerhoff C P et al., A Kazal-type inhibitor of human mast cell tryptase: Isolation from the medical leech Hirudo medicinalis, characterization, and sequence analysis, Biol. Chem. Hoppe-Seyler 375: 685-694, 1994).
Human tryptase is isolated from lung tissue or prepared recombinantly; the specific activity of the protease, determined by titration, is usually greater than 85% of the theoretical value. […]

Row | SMILES | Ki [µM]
1 | CCOC(=O)CN(CCNC(=O)OCC#CCOC(=O)NCCN(CC(=O)OCC)C(=O)CCc1ccc(CN)cc1)C(=O)CCc1ccc(CN)cc1 [Compound 3, 1,4-Bis{N-[3-(4-(aminomethyl-phenyl)-propionyl]-N-(ethoxycarbonyl-methyl)-amino-3-(ethyl-aminocarbonyloxy)}-2-butynedihydrochloride] | 0.0054
2 | CCOC(=O)CN(CCNC(=O)OCC#Cc1ccc(C#CCOC(=O)NCCN(CC(=O)OCC)C(=O)CCc2ccc(CN)cc2)cc1)C(=O)CCc1ccc(CN)cc1 [Compound 1, 1,4-Bis-{N-[3-(4-aminomethyl-phenyl)-propionyl]-N-(ethoxycarbonyl-methyl)-amino-3-(ethyl-aminocarbonyloxy)-prop-1-ynyl}-benzene dihydrochloride] | 0.035
